Measurements published in patent publication US9499519B2, “Fused pyrimidine compounds and use thereof” (Medivation Technologies, Inc., priority 2012, dated 2016).

How the values were obtained:
Format in all cases: biochemical
[1] = molecular target: T1, c-Mer (Homo sapiens, UniProt Q12866); assay: HotSpot kinase assay: c-Mer; details: 100 nM compound, read-out: % Enzyme Inhibition @ 100 nM c-MER
T1 sequence (Q12866 21-999): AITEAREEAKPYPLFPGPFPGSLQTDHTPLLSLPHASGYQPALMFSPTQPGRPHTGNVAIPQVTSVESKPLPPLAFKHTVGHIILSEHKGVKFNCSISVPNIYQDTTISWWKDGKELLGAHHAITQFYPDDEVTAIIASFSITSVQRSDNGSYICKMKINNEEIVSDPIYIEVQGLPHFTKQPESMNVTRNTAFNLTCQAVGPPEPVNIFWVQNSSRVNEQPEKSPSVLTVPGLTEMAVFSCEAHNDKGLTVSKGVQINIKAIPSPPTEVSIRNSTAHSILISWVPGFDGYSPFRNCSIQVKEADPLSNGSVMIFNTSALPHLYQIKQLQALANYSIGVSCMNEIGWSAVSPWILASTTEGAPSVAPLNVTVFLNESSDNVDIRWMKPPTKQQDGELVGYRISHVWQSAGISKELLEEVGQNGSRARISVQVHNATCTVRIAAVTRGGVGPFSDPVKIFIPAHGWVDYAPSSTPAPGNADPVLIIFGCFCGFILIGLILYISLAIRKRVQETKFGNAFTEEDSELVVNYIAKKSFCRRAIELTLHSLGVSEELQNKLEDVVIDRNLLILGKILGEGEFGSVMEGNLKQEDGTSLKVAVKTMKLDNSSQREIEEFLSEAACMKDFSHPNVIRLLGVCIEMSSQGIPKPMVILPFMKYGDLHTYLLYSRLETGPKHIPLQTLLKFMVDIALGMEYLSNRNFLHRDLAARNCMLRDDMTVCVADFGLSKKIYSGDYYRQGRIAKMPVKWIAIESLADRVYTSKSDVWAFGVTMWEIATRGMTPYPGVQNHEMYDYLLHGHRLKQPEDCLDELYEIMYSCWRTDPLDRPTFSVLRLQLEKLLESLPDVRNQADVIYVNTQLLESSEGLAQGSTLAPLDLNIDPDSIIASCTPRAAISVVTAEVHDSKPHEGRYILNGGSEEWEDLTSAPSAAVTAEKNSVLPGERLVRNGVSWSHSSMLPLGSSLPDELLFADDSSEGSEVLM
Method: (§1) Kinase assays were performed using additional compounds against a panel of 4 kinases: AXL; c-Met; c-Mer; and Trk C. Each compound was tested at a concentration of 0.1 M in single duplicate mode against the 4 kinases. Compounds were prepared as 10 mM stock solutions in DMSO prior to use in the assay. […] IC50 values and curve fits were obtained using Prism (GraphPad Software).
(§2) The screening was performed using the “HotSpot” assay platform. The assay measures the conversion of a peptide substrate to ^33P-labelled phosphorylated product. Briefly, specific kinase/substrate pairs along with required cofactors were prepared in reaction buffer. Specifically, the substrate was prepared in reaction buffer (20 mM Hepes, pH 7.5; 10 mM MgCl2; 1 mM EGTA; 0.02% Brij35; 0.02 mg/mL BSA; 0.1 mM Na3VO4; 2 mM DTT; 1% DMSO), followed by delivery of any required cofactor to the resulting substrate solution. The corresponding kinase was delivered into the substrate solution and the reaction mixture was mixed gently. Compound was delivered into the reaction mixture, followed 15-20 minutes later by addition of a mixture of ATP (Sigma, St. Louis Mo.) and ^33P ATP (specific activity 0.01 μCi/μL final; Perkin Elmer, Waltham, Mass.) to a final concentration of 10 μM-30 μM to initiate the reaction. […] The percent of enzyme inhibition was calculated based on the percent of remaining kinase activity.

[2] = molecular target: c-Met (Homo sapiens, UniProt P08581); assay: HotSpot kinase assay: c-Met; details: 100 nM compound, read-out: % Enzyme Inhibition @ 100 nM c-MET
Sequence of c-Met (P08581 25-1390): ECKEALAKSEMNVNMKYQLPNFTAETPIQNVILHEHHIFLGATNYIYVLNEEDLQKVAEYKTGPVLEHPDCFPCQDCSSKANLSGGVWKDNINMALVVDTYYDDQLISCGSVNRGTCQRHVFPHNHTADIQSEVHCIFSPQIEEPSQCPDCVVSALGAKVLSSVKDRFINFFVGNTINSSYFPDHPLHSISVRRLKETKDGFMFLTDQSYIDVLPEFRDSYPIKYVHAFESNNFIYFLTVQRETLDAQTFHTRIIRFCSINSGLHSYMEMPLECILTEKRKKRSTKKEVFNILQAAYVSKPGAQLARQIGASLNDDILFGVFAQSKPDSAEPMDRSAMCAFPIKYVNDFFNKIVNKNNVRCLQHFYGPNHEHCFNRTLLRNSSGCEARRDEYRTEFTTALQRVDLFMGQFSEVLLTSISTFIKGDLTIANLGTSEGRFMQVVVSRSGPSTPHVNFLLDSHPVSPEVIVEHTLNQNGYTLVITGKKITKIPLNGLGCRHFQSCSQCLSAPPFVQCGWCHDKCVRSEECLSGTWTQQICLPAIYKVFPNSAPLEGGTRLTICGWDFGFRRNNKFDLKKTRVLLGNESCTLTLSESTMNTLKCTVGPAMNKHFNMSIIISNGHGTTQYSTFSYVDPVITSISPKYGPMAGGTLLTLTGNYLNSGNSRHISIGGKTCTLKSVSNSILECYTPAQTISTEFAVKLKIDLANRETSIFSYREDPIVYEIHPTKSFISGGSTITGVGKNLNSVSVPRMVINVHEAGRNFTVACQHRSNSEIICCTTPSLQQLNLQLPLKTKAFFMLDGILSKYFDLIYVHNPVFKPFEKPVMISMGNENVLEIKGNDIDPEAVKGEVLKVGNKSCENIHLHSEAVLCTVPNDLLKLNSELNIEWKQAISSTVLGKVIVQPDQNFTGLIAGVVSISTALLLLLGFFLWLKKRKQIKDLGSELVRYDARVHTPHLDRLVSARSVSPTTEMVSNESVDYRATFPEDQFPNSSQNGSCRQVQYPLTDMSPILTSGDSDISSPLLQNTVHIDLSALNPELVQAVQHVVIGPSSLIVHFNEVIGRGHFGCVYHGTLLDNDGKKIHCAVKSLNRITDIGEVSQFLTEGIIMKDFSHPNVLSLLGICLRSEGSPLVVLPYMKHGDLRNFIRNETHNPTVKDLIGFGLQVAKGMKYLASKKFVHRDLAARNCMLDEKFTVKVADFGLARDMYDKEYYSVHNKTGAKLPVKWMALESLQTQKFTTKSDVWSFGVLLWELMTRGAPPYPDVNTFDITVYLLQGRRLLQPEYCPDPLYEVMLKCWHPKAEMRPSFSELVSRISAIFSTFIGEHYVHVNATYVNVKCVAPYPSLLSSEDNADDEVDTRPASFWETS
Method: as §1, §2

[3] = molecular target: Trk A (Homo sapiens, UniProt P04629); assay: HotSpot kinase assay: Trk A; details: 100 nM compound, read-out: % Enzyme Inhibition @ 100 nM Trk A
Sequence of Trk A (P04629 33-796): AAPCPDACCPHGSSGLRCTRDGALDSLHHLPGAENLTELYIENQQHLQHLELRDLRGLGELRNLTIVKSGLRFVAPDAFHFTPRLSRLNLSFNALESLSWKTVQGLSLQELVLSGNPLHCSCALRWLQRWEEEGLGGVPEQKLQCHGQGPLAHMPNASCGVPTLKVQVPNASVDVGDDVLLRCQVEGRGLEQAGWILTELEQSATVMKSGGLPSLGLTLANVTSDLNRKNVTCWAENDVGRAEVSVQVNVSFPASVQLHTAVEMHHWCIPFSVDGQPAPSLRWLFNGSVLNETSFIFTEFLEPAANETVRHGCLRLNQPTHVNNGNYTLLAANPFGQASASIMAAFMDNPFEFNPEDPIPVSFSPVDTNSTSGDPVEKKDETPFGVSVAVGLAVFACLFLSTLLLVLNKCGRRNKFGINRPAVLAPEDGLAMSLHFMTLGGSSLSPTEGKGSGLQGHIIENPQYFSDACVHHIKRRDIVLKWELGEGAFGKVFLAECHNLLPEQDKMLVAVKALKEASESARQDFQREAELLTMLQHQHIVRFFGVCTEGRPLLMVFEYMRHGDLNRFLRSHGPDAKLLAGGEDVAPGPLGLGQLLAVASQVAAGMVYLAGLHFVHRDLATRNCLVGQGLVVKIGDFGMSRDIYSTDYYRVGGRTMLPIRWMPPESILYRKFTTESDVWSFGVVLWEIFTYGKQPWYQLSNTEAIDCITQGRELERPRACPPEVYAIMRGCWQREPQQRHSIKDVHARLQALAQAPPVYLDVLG
Method: as §1, with “of 3” for “of 4”, “kinases: Trk A; Trk B;” for “kinases: AXL; c-Met; c-Mer;”, “0.1 μM” for “0.1 M”, “the 3” for “the 4”, “Software). […]” for “Software).”
The screening was performed using the “HotSpot” assay platform. The assay measures the conversion of a peptide substrate to ^33P-labelled phosphorylated product. Briefly, specific kinase/substrate pairs along with required cofactors were prepared in reaction buffer. Specifically, the substrate was prepared in reaction buffer (20 mM Hepes, pH 7.5; 10 mM MgCl2; 1 mM EGTA; 0.02% Brij35; 0.02 mg/mL BSA; 0.1 mM Na3VO4; 2 mM DTT; 1% DMSO), followed by delivery of any required cofactor to the resulting substrate solution. The corresponding kinase was delivered into the substrate solution and the reaction mixture was mixed gently. Compound was delivered into the reaction mixture, followed 15-20 minutes later by addition of a mixture of ATP (Sigma, St. Louis Mo.) and ^33P ATP (specific activity 0.01 μCi/μL final; Perkin Elmer, Waltham, Mass.) to a final concentration of 10 μM-30 μM to initiate the reaction. Reactions were carried out at room temperature for 120 minutes, followed by spotting of the reactions onto P81 ion exchange filter paper (Whatman #3698-915; Whatman Inc., Piscataway, N.J.). Unbound phosphate was removed by extensive washing of filters in 0.75% phosphoric acid. […] The percent of enzyme inhibition was calculated based on the percent of remaining kinase activity.

[4] = molecular target: T2, IGF-1R (Homo sapiens, UniProt P08069); assay: In vitro IGF-1R enzymatic assay (ADP-Glo kinase assay); details: activated IGF-1R
T2 construct: purchased Millipore 14-802
T2 sequence (P08069 31-1367): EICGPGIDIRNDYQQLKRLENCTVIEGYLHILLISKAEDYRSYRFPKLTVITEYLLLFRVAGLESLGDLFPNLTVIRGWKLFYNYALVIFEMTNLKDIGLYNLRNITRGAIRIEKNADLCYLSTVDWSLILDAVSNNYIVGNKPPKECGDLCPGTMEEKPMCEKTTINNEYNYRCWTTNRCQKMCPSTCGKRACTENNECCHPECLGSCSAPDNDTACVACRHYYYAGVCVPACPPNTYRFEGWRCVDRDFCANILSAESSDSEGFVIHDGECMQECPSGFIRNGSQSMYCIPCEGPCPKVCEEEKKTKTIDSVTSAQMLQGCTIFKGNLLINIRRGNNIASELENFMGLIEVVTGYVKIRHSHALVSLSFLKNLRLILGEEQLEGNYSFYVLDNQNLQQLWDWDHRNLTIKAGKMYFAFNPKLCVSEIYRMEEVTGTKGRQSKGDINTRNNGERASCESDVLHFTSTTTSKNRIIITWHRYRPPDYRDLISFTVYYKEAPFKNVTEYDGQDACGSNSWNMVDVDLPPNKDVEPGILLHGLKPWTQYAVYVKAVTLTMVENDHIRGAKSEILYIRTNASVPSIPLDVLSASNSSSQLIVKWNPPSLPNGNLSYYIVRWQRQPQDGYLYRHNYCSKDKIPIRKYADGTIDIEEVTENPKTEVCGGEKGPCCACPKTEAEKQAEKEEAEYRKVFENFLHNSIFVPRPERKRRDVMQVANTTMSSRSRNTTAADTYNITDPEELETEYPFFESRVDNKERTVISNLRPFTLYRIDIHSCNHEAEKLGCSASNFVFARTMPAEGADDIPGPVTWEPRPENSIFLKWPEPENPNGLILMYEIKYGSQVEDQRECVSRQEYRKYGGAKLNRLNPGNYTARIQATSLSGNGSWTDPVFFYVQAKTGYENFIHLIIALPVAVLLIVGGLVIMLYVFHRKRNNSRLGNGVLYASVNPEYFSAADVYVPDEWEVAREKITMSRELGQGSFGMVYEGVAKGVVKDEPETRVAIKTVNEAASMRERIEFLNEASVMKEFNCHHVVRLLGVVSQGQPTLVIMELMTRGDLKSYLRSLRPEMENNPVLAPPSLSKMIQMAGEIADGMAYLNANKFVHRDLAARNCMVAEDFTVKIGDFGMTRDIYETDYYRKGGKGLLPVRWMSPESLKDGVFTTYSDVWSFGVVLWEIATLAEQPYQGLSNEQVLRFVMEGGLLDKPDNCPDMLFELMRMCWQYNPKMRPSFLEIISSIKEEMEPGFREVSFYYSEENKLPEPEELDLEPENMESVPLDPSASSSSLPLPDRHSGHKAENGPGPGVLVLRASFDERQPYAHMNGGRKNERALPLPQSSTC
Method: IC50 values of the compounds of the invention against IGF-1R and IR were measured in vitro using an ADP-Glo kinase assay Kit (Promega). […] Kinase reactions in both assays were conducted at 30° C. for 20 min with increasing concentrations of compounds of the invention.
Additional compounds of the invention were screened against activated IGF-1R.

`CC(C)c1cc(Nc2nc(N3CCCC3C(=O)N(C)C)nc3c2CCC3)n[nH]1` (single isomer, unassigned) [Compound 20b, 1-(4-(5-isopropyl-1H-pyrazol-3-ylamino)-6,7-dihydro-5H-cyclopenta[d]pyrimidin-2-yl)-N,N-dimethylpyrrolidine-2-carboxamide] was tested, and the inhibition at 0.1 µM [1] was < 39%, the inhibition at 0.1 µM [2] was < 39% and the inhibition at 0.1 µM [3] was < 39%. It also gave an IC50 [4] of 3.2 µM and an inhibition at 0.03 µM ([4]; 30 nM, average, read-out: % Inh @ 30 nM Avg) of 9%.
